US20030125337A1, “Inhibitors of multidrug transporters” (priority 1998, published 2003)
In brackets after ≈: the same amount, converted by molar mass. Like-named read-outs stand apart in the source and are kept apart here.

Key:
NA strain = assay: Checkerboard synergy testing of inhibitors with ciprofloxacin, NA strain; type: cell-based, B. subtilis; conditions: combination with ciprofloxacin
Experimental: (§1) Synergy testing was performed with the strain NA by checkerboard titration in microtiter plates using two-fold serial broth microdilution (Eliopoulus and Moellering Jr., 1996). […] Wells were assessed visually for growth after an 18 h incubation period. The Fractional Inhibitory Concentration (FIC) was calculated for each inhibitor and ethidium combination. The following formulae were used to calculate the FIC index: [drawing 43]
(§2) The inventors have quantitated the effects of the combination of the NorA inhibitors with ciprofloxacin, currently the most widely used fluoroquinolone and the second most prescribed antibiotic. Synergy testing was performed by checkerboard titration as described above for ethidium. […] All five compounds acted in a synergistic manner with ciprofloxacin, having FIC indices <0.5 (see Table 4). The inventors concluded that, similarly to their effects on the bacteriotoxicity of ethidium, each of the tested NorA inhibitors promotes the bacteriotoxicity of ciprofloxacin in a synergistic manner.

S. pneumoniae (SPC2A) = assay: Minimal inhibitor concentration decreasing the ciprofloxacin MIC two fold, S. pneumoniae SPC2A; type: cell-based; conditions: Streptococcus pneumoniae, read-out: IC50 S. Pneumoniae
S. aureus strain SA1199B = assay: Checkerboard synergy testing of inhibitors with ciprofloxacin, S. aureus SA1199B; type: cell-based; conditions: combination with ciprofloxacin
Experimental: as §1, §2

strain NA = assay: Checkerboard synergy testing of inhibitors with ethidium, strain NA; type: cell-based, B. subtilis; conditions: for FIC index: combination with ethidium, strain NA, 18 h, synergy = FIC index <0.5
Experimental: as §1
Synergy was defined as an FIC index of <0.5.

[1] = test system: wild type S. aureus SA1199; type: cell-based; conditions: INF inhibitors 5 μg/ml, reserpine 20 μg/ml; for Frequency of emergence of variants resistant to two fold the MIC of ciprofloxacin, Spontaneous: SA1199, ciprofloxacin 1 μg/ml, 48 h; for Frequency of emergence of variants resistant to two fold the MIC of ciprofloxacin, Mutagenized: SA1199 mutagenized with ethylmethane sulfonate; for Fold inhibition of emergence of resistance: ciprofloxacin resistance, SA1199
Experimental: The effect of the inhibitors on the rate of emergence of in vitro selected single-step ciprofloxacin resistant mutants of wild type S. aureus SA1199 (Kaatz et al., 1990) was determined.
Ciprofloxacin resistance in first step in vitro selected mutants of S. aureus is predominantly due to specific point mutations in the targets of this drug, topoisomerase IV and gyrase (Cambau and Gutman, 1993; Ferrero et al., 1994).

S. aureus (SA1199B) = assay: Minimal inhibitor concentration decreasing the ciprofloxacin MIC two fold, S. aureus SA1199B; type: cell-based; conditions: Staphylococcus aureus, read-out: Effectivity IC50* S. Aureus
HeLa cell line = assay: Toxicity on HeLa cell line, Cell Titer 96 AQueous MTS-based assay; parameters: species or system human; conditions: for Selectivity Index (Toxicity HeLa/Effectivity): HeLa IC50 / S. aureus effectivity IC50; for IC50: Homo sapiens, 72 h, HeLa, read-out: Toxicity HeLa IC50
Experimental: Here the inventors proposed to test the toxicity of the identified lead compounds on several human cell lines. To date, the inventors have determined the IC50 of the lead compounds for the HeLa cell line, the results of which are presented in Table 6. The toxicity of the compounds at concentrations ranging from 0.7 μg/ml to 100 μμg/ml was determined in a 96 well plate by adding the compounds to cells 24 h after seeding at a density of 10^4 per well. After incubation with the compounds for 3 days the effect on cell growth was determined using the Cell Titer 96 AQueous MTS-based assay (Promega, Madison, Wis.).

Streptococcus pneumoniae = conditions: cited from earlier work
[2] = test system: most (≧90%) strains of the following microorganisms (Acinetobacter Iwoffi ... Yersinia enterocolitica); conditions: most (≧90%) strains of listed microorganisms; cited from earlier work
[3] = in vivo; cited from earlier work
[4] = test system: most Gram negative microorganisms; conditions: cited from earlier work
NorA = target: T1, NorA (Staphylococcus aureus, UniProt P0A0J7); assay: Screen of DiverSet library for reversing the resistance of B. subtilis strain NA to the NorA substrate ethidium bromide; type: cell-based; conditions: ranking or words
T1 construct: expressed in transfected cells; host or cells: Bacillus subtilis strain NA
Experimental: One library for the compounds identified in the present invention is DiverSet™ (ChemBridge Corp., Glenview, Ill.) The screening of this library consisting of 9,600 compounds, has been completed. The chemical library was screened for compounds effective, at concentrations of 20 μg/ml or less, in reversing the resistance of a specially created B. subtilis strain NA to the NorA substrate ethidium bromide. Although the present invention employed NorA as the multidrug transporter in the screening assays it will be understood by one of skill in the art that the compounds identified herein will likely have applicability to other multidrug transporters.
In an exemplary assay, in order to identify a candidate substance as an inhibitor of NorA, the B. subtilis strain NA may be used. […]
The DiverSet™ library of chemical compounds was screened for compounds effective, at concentrations of 20 μg/ml or less, in reversing the resistance of a specially created B. subtilis strain NA to the NorA substrate ethidium bromide. […] These three classes of compounds were evaluated using the activity data provided and the CoMFA fields generated to see if a 3D-QSAR relationship was present.

[5] = test system: most strains of certain other organisms (Gram negative aerobes); conditions: most strains of listed Gram negative aerobes; cited from earlier work
[6] = test system: most strains of the following organisms (Staphylococcus aureus, Staphylococcus epidermidis, various Gram negative bacteria); conditions: most strains of listed organisms; cited from earlier work
[7] = test system: Gram-negative and Gram-positive organisms; conditions: generally, except staphylococci; cited from earlier work
[8] = SPC2A, minimal concentration required to decrease the MIC for ciprofloxacin by two fold, N.A. = not active at 5 μg/ml

T1 sequence (P0A0J7 whole entry): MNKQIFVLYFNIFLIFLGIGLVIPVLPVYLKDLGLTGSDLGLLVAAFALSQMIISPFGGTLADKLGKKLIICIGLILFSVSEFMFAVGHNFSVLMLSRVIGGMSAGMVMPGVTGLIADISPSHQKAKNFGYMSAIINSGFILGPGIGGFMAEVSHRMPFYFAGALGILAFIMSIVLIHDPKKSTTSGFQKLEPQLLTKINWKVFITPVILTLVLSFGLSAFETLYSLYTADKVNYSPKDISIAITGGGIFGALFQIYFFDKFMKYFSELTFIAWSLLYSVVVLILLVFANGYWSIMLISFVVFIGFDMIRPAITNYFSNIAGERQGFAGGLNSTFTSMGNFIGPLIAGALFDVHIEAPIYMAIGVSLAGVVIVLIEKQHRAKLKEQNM

| SMILES | FIC index NA (NA strain) | FIC index SA1199B (S. aureus strain SA1199B) | FIC index (strain NA) | Frequency of emergence of variants resistant to two fold the MIC of ciprofloxacin, Spontaneous [1] | Frequency of emergence of variants resistant to two fold the MIC of ciprofloxacin, Mutagenized [1] | Fold inhibition of emergence of resistance [1] | IC50 (S. aureus (SA1199B)) [µg/mL] | Selectivity Index (Toxicity HeLa/Effectivity) (HeLa cell line) | IC50 (HeLa cell line; 3 days, MTS) [µg/mL] | also measured |
| --- | --- | --- | --- | --- | --- | --- | --- | --- | --- | --- |
| O=[N+]([O-])c1ccc2[nH]c(-c3ccccc3)cc2c1 [INF 55] | 0.25 | 0.25 | 0.08 | <5 × 10^−11 | <2.5 × 10^−10 | >50 | 1.5 (≈ 6.3 µM) | 27 | 40 (≈ 168 µM) | IC50 (S. pneumoniae (SPC2A); [8]): 5 µg/mL (≈ 21 µM) |
| O=C(/C=C/c1ccccc1)Nc1cccc(/C=C/C(=O)c2ccccc2)c1 [INF 240] | 0.12 | 0.28 | 0.16 | <5 × 10^−11 | <2.5 × 10^−10 | >50 | 0.8 (≈ 2.26 µM) | 2.5 | 2 (≈ 5.66 µM) | – |
| COc1ccccc1NC(=O)Nc1ccc2ccccc2c1 [INF 271] | 0.12 | 0.18 | 0.07 | <5 × 10^−11 | <2.5 × 10^−10 | >50 | 1.5 (≈ 5.13 µM) | 12 | 18 (≈ 61.6 µM) | IC50 (S. pneumoniae (SPC2A); [8]): 2.5 µg/mL (≈ 8.55 µM) |
| CC1(C)CC(=O)C2=C(C1)c1c(ccc3ccccc13)NC2c1cc(Br)ccc1O (stereo not shown) [INF 277] | 0.15 | 0.28 | 0.09 | <5 × 10^−11 | <2.5 × 10^−10 | >50 | 0.8 (≈ 1.78 µM) | 6 | – | IC50 (S. pneumoniae (SPC2A)): 5 µg/mL (≈ 11.2 µM); IC50 (HeLa cell line): 5 µg/mL (≈ 11.2 µM) |
| O=c1nc(SCc2ccccc2)[nH]c2c1[C@H](c1ccccc1)c1ccccc1O2 [INF 392] | 0.28 | 0.15 | 0.14 | 5 × 10^−11 | 1 × 10^−9 | 25 | 0.1 (≈ 0.251 µM) | 450 | – | IC50 (S. pneumoniae (SPC2A)): 2.5 µg/mL (≈ 6.27 µM); IC50 (HeLa cell line): 45 µg/mL (≈ 113 µM) |
| O=C(O)c1cn(C2CC2)c2cc(N3CCNCC3)c(F)cc2c1=O [ciprofloxacin] | – | – | – | – | – | – | – | – | – | MIC90 (Streptococcus pneumoniae): 1 to 2 µg/mL; in vitro minimal inhibitory concentrations (MICs) [2]: ≤ 1 µg/mL; achievable tissue concentration [3]: 4 µg/mL; MIC90 [4]: ~0.1 µg/mL (≈ 0.302 µM) |
| O=c1nc(SCc2ccccc2)[nH]c(O)c1C(c1ccccc1)c1ccccc1 [compound 41] | – | – | – | – | – | – | – | – | – | relative inhibitory activity in the initial screening (NorA): most active lead compound in this category |
| CCn1cc(C(=O)O)c(=O)c2cc(F)c(N3CCNCC3)nc21 [enoxacin] | – | – | – | – | – | – | – | – | – | in vitro minimum inhibitory concentrations (MICs) [5]: ≤ 2.0 µg/mL |
| CC[n+]1c(-c2ccccc2)c2cc(N)ccc2c2ccc(N)cc21 [ethidium, ethidium bromide, reference compound] | – | – | – | – | – | – | – | – | – | MIC (strain NA; Bacillus subtilis, read-out: MIC for the strain NA): 40 µg/mL |
| CCn1cc(C(=O)O)c(=O)c2cc(F)c(N3CCNC(C)C3)c(F)c21 (stereo not shown) [lomefloxacin] | – | – | – | – | – | – | – | – | – | in vitro MICs [6]: ≤ 2 µg/mL; factor by which MBC exceeds MIC [7]: ≤ 2 |
